Article PMC9921777, “Coumarin-Based Sulfonamide Derivatives as Potential DPP-IV Inhibitors: Pre-ADME Analysis, Toxicity Profile, Computational Analysis, and In Vitro Enzyme Assay” (Molecules, 2023)

System: DPP-IV
Assay: not given
Details: DPP-IV enzyme assay of coumarin; cited from earlier work

Row | SMILES | IC50 [µM]
1 | O=c1ccc2ccccc2o1 [coumarin] | 54.8

Molecular target: DPP-IV enzyme (Homo sapiens, UniProt P27487)
Assay: In vitro DPP-IV enzyme inhibition assay (Cayman Chemical kit, item 700210)
Details: not given

Sequence of DPP-IV enzyme (P27487 whole entry): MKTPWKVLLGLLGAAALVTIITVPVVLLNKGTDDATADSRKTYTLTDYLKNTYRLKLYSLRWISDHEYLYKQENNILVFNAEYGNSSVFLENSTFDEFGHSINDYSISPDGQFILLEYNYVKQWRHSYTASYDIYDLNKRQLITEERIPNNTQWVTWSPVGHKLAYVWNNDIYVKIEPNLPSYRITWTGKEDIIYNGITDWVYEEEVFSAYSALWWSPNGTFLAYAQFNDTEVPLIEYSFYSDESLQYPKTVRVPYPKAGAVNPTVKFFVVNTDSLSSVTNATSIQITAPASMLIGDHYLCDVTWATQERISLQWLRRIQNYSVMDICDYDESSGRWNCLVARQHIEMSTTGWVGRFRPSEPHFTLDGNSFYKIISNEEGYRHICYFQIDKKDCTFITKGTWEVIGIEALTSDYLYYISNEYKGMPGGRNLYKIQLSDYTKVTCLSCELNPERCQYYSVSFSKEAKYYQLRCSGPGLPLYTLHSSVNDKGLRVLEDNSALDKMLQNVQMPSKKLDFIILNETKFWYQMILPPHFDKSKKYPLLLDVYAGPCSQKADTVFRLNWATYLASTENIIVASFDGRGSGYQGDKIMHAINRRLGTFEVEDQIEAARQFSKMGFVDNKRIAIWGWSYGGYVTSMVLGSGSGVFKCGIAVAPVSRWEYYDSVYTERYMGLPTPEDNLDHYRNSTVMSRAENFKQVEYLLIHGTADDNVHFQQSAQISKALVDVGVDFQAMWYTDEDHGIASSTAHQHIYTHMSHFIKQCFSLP

Row | SMILES | IC50 [µM]
2 | O=c1oc2ccc(S(=O)(=O)NCc3ccccc3)cc2cc1Cl [6t, N-benzyl-3-chloro-2-oxo-2H-chromene-6-sulfonamide] | 17.73 ± 0.02
3 | O=c1oc2ccc(S(=O)(=O)Nc3cccnc3)cc2cc1Cl [6c, 3-Chloro-2-oxo-N-(pyridin-3-yl)-2H-chromene-6-sulfonamide] | 16.3 ± 2.04
4 | Cc1ccc(NS(=O)(=O)c2ccc3oc(=O)c(Cl)cc3c2)cc1 [6r, 3-Chloro-2-oxo-N-(p-tolyl)-2H-chromene-6-sulfonamide] | 12.92 ± 0.11
5 | O=c1oc2ccc(S(=O)(=O)Nc3ccccc3)cc2cc1Cl [6a, 3-Chloro-2-oxo-2H-1-benzopyran-6-(N-phenyl)sulfonamide] | 14.5 ± 1.2
6 | O=c1oc2ccc(S(=O)(=O)Nc3nc4ccccc4[nH]3)cc2cc1Cl [6i, 3-Chloro-2-oxo-2H-1-benzopyran-6-(N-benzimidazole)sulfonamide] | 11 ± 1
7 | O=c1oc2ccc(S(=O)(=O)Nc3ccccn3)cc2cc1Cl [6b, 3-Chloro-2-oxo-N-(pyridin-2-yl)-2H-chromene-6-sulfonamide] | 15.7 ± 0.98
8 | Cc1ccccc1NS(=O)(=O)c1ccc2oc(=O)c(Cl)cc2c1 [6s, 3-Chloro-2-oxo-N-(o-tolyl)-2H-chromene-6-sulfonamide] | 18.29 ± 0.1
9 | O=c1oc2ccc(S(=O)(=O)Nc3ccncc3)cc2cc1Cl [6d, 3-Chloro-2-oxo-N-(pyridin-4-yl)-2H-chromene-6-sulfonamide] | 15.2 ± 1.02

Same assay, conditions: read-out: % Inhibition (at Conc.)

Row | SMILES | inhibition at 250 µM [%]
10 | O=c1oc2ccc(S(=O)(=O)NCc3ccccc3)cc2cc1Cl [6t, N-benzyl-3-chloro-2-oxo-2H-chromene-6-sulfonamide] | 88.3 ± 2.06
11 | O=c1oc2ccc(S(=O)(=O)Nc3cccnc3)cc2cc1Cl [6c, 3-Chloro-2-oxo-N-(pyridin-3-yl)-2H-chromene-6-sulfonamide] | 90.3 ± 2.04
12 | Cc1ccc(NS(=O)(=O)c2ccc3oc(=O)c(Cl)cc3c2)cc1 [6r, 3-Chloro-2-oxo-N-(p-tolyl)-2H-chromene-6-sulfonamide] | 95.4 ± 1.1
13 | O=c1oc2ccc(S(=O)(=O)Nc3ccccc3)cc2cc1Cl [6a, 3-Chloro-2-oxo-2H-1-benzopyran-6-(N-phenyl)sulfonamide] | 93.5 ± 2.02
14 | O=c1oc2ccc(S(=O)(=O)Nc3nc4ccccc4[nH]3)cc2cc1Cl [6i, 3-Chloro-2-oxo-2H-1-benzopyran-6-(N-benzimidazole)sulfonamide] | 95.8 ± 1.08
15 | O=c1oc2ccc(S(=O)(=O)Nc3ccccn3)cc2cc1Cl [6b, 3-Chloro-2-oxo-N-(pyridin-2-yl)-2H-chromene-6-sulfonamide] | 91.15 ± 0.9
16 | Cc1ccccc1NS(=O)(=O)c1ccc2oc(=O)c(Cl)cc2c1 [6s, 3-Chloro-2-oxo-N-(o-tolyl)-2H-chromene-6-sulfonamide] | 89.3 ± 0.9
17 | O=c1oc2ccc(S(=O)(=O)Nc3ccncc3)cc2cc1Cl [6d, 3-Chloro-2-oxo-N-(pyridin-4-yl)-2H-chromene-6-sulfonamide] | 92.4 ± 1.11
